Experimental data as given in US12037324B2, “Biarylmethyl heterocycles” (Université de Montréal, priority 2016, dated 2024).

Key:
Type in all cases: cell-based
AGTR1 = molecular target: T1, AGTR1 (Homo sapiens, UniProt P30556); assay: DiscoveRx β-arrestin2 recruitment assay (enzyme complementation, Pathunter CHO-K1 AGTR1 β-arrestin cell line); settings: DiscoveRx β-arrestin2 recruitment; for DiscoveRx β-arrestin2 Ymax (%): maximal response
T1 construct: host or cells: Pathunter CHO-K1 AGTR1 β-arrestin cell line (CHO-K1)
T1 sequence (P30556 1-359): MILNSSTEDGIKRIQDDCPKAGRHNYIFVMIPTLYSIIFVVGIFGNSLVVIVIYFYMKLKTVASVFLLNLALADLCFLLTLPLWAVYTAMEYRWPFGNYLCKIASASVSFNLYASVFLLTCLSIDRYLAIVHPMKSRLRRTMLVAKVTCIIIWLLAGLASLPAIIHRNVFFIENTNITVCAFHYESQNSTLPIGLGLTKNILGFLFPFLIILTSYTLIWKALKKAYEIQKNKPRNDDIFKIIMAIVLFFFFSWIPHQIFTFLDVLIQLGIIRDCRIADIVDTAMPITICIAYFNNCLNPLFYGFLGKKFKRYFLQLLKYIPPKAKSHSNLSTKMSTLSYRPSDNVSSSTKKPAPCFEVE
Method in brief: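 Chemiluminescent enzyme-complementation read-out of β-arrestin2 recruitment to AGTR1 in engineered CHO-K1 cells after 90 min compound exposure at 37° C. Values are 4-parameter logistic EC50s in agonist mode, IC50s in antagonist mode, with efficacy relative to the maximal All response.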

hAT1R [1] = molecular target: T2, hAT1R (Homo sapiens, UniProt P30556); assay: BRET β-arrestin2 biosensor assay, higher receptor expression (hAT1R 5 ng/well), HEK293 cells; settings: for EC50: High AT1R Expression
T2 sequence (P30556 1-359): T1 sequence (P30556 1-359)

hAT1R [2] = molecular target: T2, hAT1R; assay: BRET Gq biosensor assay, agonist response, HEK293 cells; settings: section of the 42nd table directly before the BRET P63 section
Method: BRET β-arrestin2 and Gq Activation Assays
In another aspect of the invention, association of the ATIR with signaling proteins is assessed using bioluminescence resonance energy transfer assays (Stephane Angers, Ali Salahpour et al. 2002). This technology measures the association between bioluminescent and fluorescent protein tags.
Several of the plasmid constructs used in BRET experiments were previously described. Briefly, the coding sequence of β-arrestin2 was fused to Renilla luciferase II to generate β-arrestin2-Rluc (Quoyer, Janz et al. 2013). The membrane targeting motif from K-Ras, CAAX motif (GKKKKKKSKTKCVIM), was fused to Renilla GFP to create rGFP-CAAX plasmid (Namkung Y et al., Nat Commun (2016) 7, 12178). The Renilla luciferase II was inserted in the Gaq protein to generate Gaq-Rluc (Breton, Sauvageau et al. 2010). The Gγ1 protein was tagged with GFP10 to obtain GFP-Gyl, using the same strategy described previously for GFP-Gy2 (Gales, Rebois et al. 2005). The Gaq binding domain of the p63RhoGEF protein (amino acids 295-502) was fused to Renilla luciferase II to create P63-Rluc. Finally, the hAT1R plasmid construct encoding the receptor was generated by optimizing the coding sequence of human angiotensin II receptor (GeneOptimizer from ThermoFisher), and adding an artificial cleavable signal peptide from bovine prolactin ([…]) in N-terminus of the receptor to increase cell surface expression.
Gq Biosensor Assay HEK293 cells were cultured in DMEM supplemented with Penicillin-Streptomycin and 10% fetal bovine serum. Two days before the BRET experiment, HEK293 cells were transfected with hAT1R expression plasmid (200 ng/well) as well as Gaq-Rluc (100 ng/well), Gβ1 (375 ng/well) and GFP-Gγ1 (625 ng/well), using linear polyethylenimine 25 kDa (PEI) at a PEI:DNA ratio of 3:1. Transfected cells were directly seeded in 96-well plates, at a density of 35 000 cells per well, and maintained in culture for the next 48 h.
BRET experiments were carried out subsequently using the following procedures: cells were washed once with Tyrode's buffer (137 mM NaCl, 1 mM CaCl2, 0.9 mM KCl, […], 3.6 mM NaH2PO4, 5.5 mM glucose, 12 mM NaHCO3, and 25 mM HEPES, pH 7.4) and 90 μl of Tyrode's buffer was added to each well. Cells were equilibrated in their new buffer at room temperature for at least 30 minutes. Following the equilibration period, the coelenterazine substrate was first added to the cells, 10 μl per well of a 10×solution (prolume purple coelenterazine at a final concentration of 2 μM), immediately followed by compound addition using the HP D300 digital dispenser from Tecan (10 singlicate concentrations). Cells were incubated for 5 min at room temperature and BRET readings were then collected using a Synergy Neo Multi-Mode reader from BioTek with BRET2 filters 410/515, to record agonist response. […] A second reading was collected 5 min after this second addition, using the Synergy Neo Multi-Mode reader from BioTek with BRET2 filters 410/515, to record antagonist response. The BRET signal was determined by calculating the ratio of the light emitted by GFP (515 nm) over the light emitted by the Rluc (410 nm). To analyze agonist response, BRET signal values were converted into percentage of activation using the non-stimulated control as 0% and AngII maximal response as 100%. Sigmoidal concentration-response curves were generated with those normalized values using a 4-parameter logistic equation (IDBS ActivityBase software), to determine EC50 of the different compounds. In the case of antagonist response analysis, BRET signal values were converted into percentage of inhibition using the fixed dose of AngII (corresponding to the EC50) as 0% and non-stimulated control as 100%. Sigmoidal concentration-response curves were generated with those normalized values using a 4-parameter logistic equation (IDBS ActivityBase software), to determine IC50 of the different compounds.

CCCCC(=O)N(Cc1ccc(-c2cc(-c3ccccc3)ccc2-c2nn[nH]n2)cc1)C(C)(C)C(=O)O [Example 268, 2-(N-((6′-(2H-Tetrazol-5-yl)-[1,1′:3′,1″-terphenyl]-4-yl)methyl)pentanamido)-2-methylpropanoic acid]
EC50 (AGTR1): 628 nM | DiscoveRx β-arrestin2 Ymax (%) (AGTR1): 39.8% | BRET β-Arrestin2 High AT1R Expression Ymax (%) (hAT1R [1]): 73.8% | EC50 (hAT1R [1]): 1030 nM | EC50 (hAT1R [2]): 1090 nM

CCCCC(=O)N(Cc1ccc(-c2cc(-c3ccccc3)ccc2-c2nn[nH]n2)cc1)C1(C(=O)O)CC1 [Example 269]
EC50 (AGTR1): 6540 nM | DiscoveRx β-arrestin2 Ymax (%) (AGTR1): 14.2% | BRET β-Arrestin2 High AT1R Expression Ymax (%) (hAT1R [1]): 58.7% | EC50 (hAT1R [1]): 30700 nM | EC50 (hAT1R [2]): > 100000 nM

CCCCC(=O)N(Cc1ccc(-c2cc(-c3ccccc3)ccc2-c2nn[nH]n2)cc1)C1(C(=O)O)CCC1 [Example 270]
EC50 (AGTR1): 6550 nM | DiscoveRx β-arrestin2 Ymax (%) (AGTR1): 28.6% | BRET β-Arrestin2 High AT1R Expression Ymax (%) (hAT1R [1]): 74.3% | EC50 (hAT1R [1]): 12900 nM | EC50 (hAT1R [2]): 4680 nM

CCCCC(=O)N(Cc1ccc(-c2cc(-c3ccccc3)ccc2-c2nn[nH]n2)cc1)C1(C(=O)O)CCCC1 [Example 271]
EC50 (AGTR1): 384 nM | DiscoveRx β-arrestin2 Ymax (%) (AGTR1): 45.5% | BRET β-Arrestin2 High AT1R Expression Ymax (%) (hAT1R [1]): 80.3% | EC50 (hAT1R [1]): 561 nM | EC50 (hAT1R [2]): 590 nM

CCCCC(=O)N(Cc1ccc(-c2cc(-c3ccccc3)ccc2-c2nn[nH]n2)cc1)C1(C(=O)O)CCCCC1 [Example 272]
EC50 (AGTR1): 16.5 nM | DiscoveRx β-arrestin2 Ymax (%) (AGTR1): 43.5% | BRET β-Arrestin2 High AT1R Expression Ymax (%) (hAT1R [1]): 84.0% | EC50 (hAT1R [1]): 15.2 nM | EC50 (hAT1R [2]): > 100000 nM

CCCCc1nc(Cl)c(C(=O)O)n1Cc1ccc(-c2cc(N3CCC[C@H](C)C3)ccc2-c2noc(=O)[nH]2)cc1 [Example 407, (S)-2-butyl-4-chloro-1-((5′-(3-methylpiperidin-1-yl)-2′-(5-oxo-4,5-dihydro-1,2,4-oxadiazol-3-yl)-[1,1′-biphenyl]-4-yl)methyl)-1H-imidazole-5-carboxylic acid]
EC50 (AGTR1): 173 nM | DiscoveRx β-arrestin2 Ymax (%) (AGTR1): 24.6% | EC50 (hAT1R [2]): 16600 nM

CCCCc1nc(Cl)c(C(=O)O)n1Cc1ccc(-c2cc(-n3ccc4ccccc43)ccc2-c2noc(=O)[nH]2)cc1 [Example 408]
EC50 (AGTR1): 23.3 nM | DiscoveRx β-arrestin2 Ymax (%) (AGTR1): 32.5% | EC50 (hAT1R [2]): > 100000 nM

CCCCc1nc(Cl)c(C(=O)OCc2oc(=O)oc2C)n1Cc1ccc(-c2cc(-c3ccccc3)ccc2-c2nn[nH]n2)cc1 [Example 411]
EC50 (AGTR1): 30.9 nM | DiscoveRx β-arrestin2 Ymax (%) (AGTR1): 56.4% | EC50 (hAT1R [2]): 17 nM

CCCc1nc(CC)c(C(=O)OCc2oc(=O)oc2C)n1Cc1ccc(-c2cc(-c3ccccc3)ccc2-c2nn[nH]n2)cc1 [Example 412, (5-methyl-2-oxo-1,3-dioxol-4-yl)methyl 1-((6′-(2H-tetrazol-5-yl)-[1,1′:3′,1′″-terphenyl]-4-yl)methyl)-4-ethyl-2-propyl-1H-imidazole-5-carboxylate]
EC50 (AGTR1): 11.7 nM | DiscoveRx β-arrestin2 Ymax (%) (AGTR1): 64.1% | EC50 (hAT1R [2]): 62.7 nM

CCCCc1nc(Cl)c(C(=O)O)n1Cc1ccc(-c2cc(-n3ccc4ccccc43)ccc2-c2nn[nH]n2)cc1 [Example 417]
EC50 (AGTR1): 5.9 nM | DiscoveRx β-arrestin2 Ymax (%) (AGTR1): 39.6% | EC50 (hAT1R [2]): > 100000 nM

CCCCc1nc(Cl)c(C(=O)O)n1Cc1ccc(-c2cc(-c3cc(C)ccn3)ccc2-c2nn[nH]n2)cc1 [Example 420]
EC50 (AGTR1): 6.5 nM | DiscoveRx β-arrestin2 Ymax (%) (AGTR1): 73.6% | EC50 (hAT1R [2]): 79.7 nM

CCCCc1nc(Cl)c(C(=O)O)n1Cc1ccc(-c2cc(-c3cc(OC)ccn3)ccc2-c2nn[nH]n2)cc1 [Example 421]
EC50 (AGTR1): 9.4 nM | DiscoveRx β-arrestin2 Ymax (%) (AGTR1): 38.5% | EC50 (hAT1R [2]): 92.5 nM

CCCCc1nc(Cl)c(C(=O)O)n1Cc1ccc(-c2cc(-c3cc(N(C)C)ccn3)ccc2-c2nn[nH]n2)cc1 [Example 422, 2-butyl-4-chloro-1-((5′-(4-(dimethylamino)pyridin-2-yl)-2′-(2H-tetrazol-5-yl)-[1,1′-biphenyl]-4-yl)methyl)-1H-imidazole-5-carboxylic acid]
EC50 (AGTR1): 68.7 nM | DiscoveRx β-arrestin2 Ymax (%) (AGTR1): 26.7% | EC50 (hAT1R [2]): 209 nM
